{"source": "the supplement of paper PMC10307832", "experiment_in_all_cases": "relative viability (nuclei count vs DMSO), 5 days (fraction); higher = more cells survive", "key": {"[1]": {"tested_on": "HCC-366", "method_in_brief": "(§1)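 Medians of duplicate plates are given as relative viability. That measure is the nuclei count in treated wells divided by the count in vehicle wells. Counts were taken on 4× images of lung cancer cell lines in 1536-well plates, 5 days after pin-tool dosing the day after seeding with one drug alone or a fixed anchor-drug dose plus five library-drug doses (not always all listed) in √10 steps.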"}, "[2]": {"tested_on": "NCI-H1651", "method_in_brief": "as §1"}, "[3]": {"tested_on": "NCI-H1650", "method_in_brief": "as §1"}, "[4]": {"tested_on": "BEN", "method_in_brief": "as §1"}, "[5]": {"tested_on": "NCI-H1437", "method_in_brief": "as §1"}, "[6]": {"tested_on": "NCI-H460", "method_in_brief": "as §1"}, "[7]": {"tested_on": "LOU-NH91", "method_in_brief": "as §1"}, "[8]": {"tested_on": "NCI-H1975", "method_in_brief": "as §1"}, "[9]": {"tested_on": "NCI-H1755", "method_in_brief": "as §1"}, "[10]": {"tested_on": "CAL-12T", "method_in_brief": "as §1"}, "[11]": {"tested_on": "NCI-H1734", "method_in_brief": "as §1"}, "[12]": {"tested_on": "NCI-H2342", "method_in_brief": "as §1"}, "[13]": {"tested_on": "NCI-H2023", "method_in_brief": "as §1"}, "[14]": {"tested_on": "NCI-H1395", "method_in_brief": "as §1"}, "[15]": {"tested_on": "HCC-44", "method_in_brief": "as §1"}, "[16]": {"tested_on": "NCI-H441", "method_in_brief": "as §1"}, "[17]": {"tested_on": "EKVX", "method_in_brief": "as §1"}, "[18]": {"tested_on": "NCI-H1355", "method_in_brief": "as §1"}, "[19]": {"tested_on": "LU99A", "method_in_brief": "as §1"}, "[20]": {"tested_on": "NCI-H2085", "method_in_brief": "as §1"}, "[21]": {"tested_on": "NCI-H838", "method_in_brief": "as §1"}, "[22]": {"tested_on": "NCI-H358", "method_in_brief": "as §1"}}}
{"compound": "CC1(C)CCC(c2ccc(Cl)cc2)=C(CN2CCN(c3ccc(C(=O)NS(=O)(=O)c4ccc(N[C@H](CCN5CCOCC5)CSc5ccccc5)c(S(=O)(=O)C(F)(F)F)c4)cc3)CC2)C1", "note": "[Navitoclax] + Cc1cc(Nc2cc(N3CCN(C)CC3)nc(Sc3ccc(NC(=O)C4CC4)cc3)n2)n[nH]1 [Tozasertib] (partner 0.1 µM)", "values": [{"measurement": "relative viability", "setting": "[1]; first compound 0.005 µM", "result": 0.109}, {"measurement": "relative viability", "setting": "[1]; first compound 0.01581 µM", "result": 0.11}, {"measurement": "relative viability", "setting": "[1]; first compound 0.1581 µM", "result": 0.118}, {"measurement": "relative viability", "setting": "[1]; first compound 0.5 µM", "result": 0.117}, {"measurement": "relative viability", "setting": "[2]; first compound 0.005 µM", "result": 0.586}, {"measurement": "relative viability", "setting": "[2]; first compound 0.01581 µM", "result": 0.686}, {"measurement": "relative viability", "setting": "[2]; first compound 0.05 µM", "result": 0.493}, {"measurement": "relative viability", "setting": "[2]; first compound 0.1581 µM", "result": 0.62}, {"measurement": "relative viability", "setting": "[2]; first compound 0.5 µM", "result": 0.66}, {"measurement": "relative viability", "setting": "[3]; first compound 0.005 µM", "result": 0.363}, {"measurement": "relative viability", "setting": "[3]; first compound 0.01581 µM", "result": 0.419}, {"measurement": "relative viability", "setting": "[3]; first compound 0.05 µM", "result": 0.415}, {"measurement": "relative viability", "setting": "[3]; first compound 0.1581 µM", "result": 0.34}, {"measurement": "relative viability", "setting": "[3]; first compound 0.5 µM", "result": 0.356}, {"measurement": "relative viability", "setting": "[4]; first compound 0.005 µM", "result": 0.536}, {"measurement": "relative viability", "setting": "[4]; first compound 0.01581 µM", "result": 0.568}, {"measurement": "relative viability", "setting": "[4]; first compound 0.05 µM", "result": 0.522}, {"measurement": "relative viability", "setting": "[4]; first compound 0.1581 µM", "result": 0.451}, {"measurement": "relative viability", "setting": "[4]; first compound 0.5 µM", "result": 0.421}, {"measurement": "relative viability", "setting": "[5]; first compound 0.005 µM", "result": 0.408}, {"measurement": "relative viability", "setting": "[5]; first compound 0.01581 µM", "result": 0.407}, {"measurement": "relative viability", "setting": "[5]; first compound 0.05 µM", "result": 0.357}, {"measurement": "relative viability", "setting": "[5]; first compound 0.1581 µM", "result": 0.46}, {"measurement": "relative viability", "setting": "[5]; first compound 0.5 µM", "result": 0.386}, {"measurement": "relative viability", "setting": "[6]; first compound 0.005 µM", "result": 0.392}, {"measurement": "relative viability", "setting": "[6]; first compound 0.01581 µM", "result": 0.327}, {"measurement": "relative viability", "setting": "[6]; first compound 0.05 µM", "result": 0.37}, {"measurement": "relative viability", "setting": "[6]; first compound 0.1581 µM", "result": 0.382}, {"measurement": "relative viability", "setting": "[6]; first compound 0.5 µM", "result": 0.397}, {"measurement": "relative viability", "setting": "[7]; first compound 0.005 µM", "result": 0.667}, {"measurement": "relative viability", "setting": "[7]; first compound 0.01581 µM", "result": 0.627}, {"measurement": "relative viability", "setting": "[7]; first compound 0.05 µM", "result": 0.714}, {"measurement": "relative viability", "setting": "[7]; first compound 0.1581 µM", "result": 0.655}, {"measurement": "relative viability", "setting": "[7]; first compound 0.5 µM", "result": 0.563}, {"measurement": "relative viability", "setting": "[8]; first compound 0.005 µM", "result": 0.791}, {"measurement": "relative viability", "setting": "[8]; first compound 0.01581 µM", "result": 0.917}, {"measurement": "relative viability", "setting": "[8]; first compound 0.05 µM", "result": 0.714}, {"measurement": "relative viability", "setting": "[8]; first compound 0.1581 µM", "result": 0.734}, {"measurement": "relative viability", "setting": "[8]; first compound 0.5 µM", "result": 0.815}, {"measurement": "relative viability", "setting": "[9]; first compound 0.005 µM", "result": 0.523}, {"measurement": "relative viability", "setting": "[9]; first compound 0.01581 µM", "result": 0.599}, {"measurement": "relative viability", "setting": "[9]; first compound 0.05 µM", "result": 0.441}, {"measurement": "relative viability", "setting": "[9]; first compound 0.1581 µM", "result": 0.453}, {"measurement": "relative viability", "setting": "[9]; first compound 0.5 µM", "result": 0.527}, {"measurement": "relative viability", "setting": "[10]; first compound 0.005 µM", "result": 0.273}, {"measurement": "relative viability", "setting": "[10]; first compound 0.01581 µM", "result": 0.354}, {"measurement": "relative viability", "setting": "[10]; first compound 0.05 µM", "result": 0.312}, {"measurement": "relative viability", "setting": "[10]; first compound 0.1581 µM", "result": 0.347}, {"measurement": "relative viability", "setting": "[10]; first compound 0.5 µM", "result": 0.308}, {"measurement": "relative viability", "setting": "[11]; first compound 0.005 µM", "result": 0.253}, {"measurement": "relative viability", "setting": "[11]; first compound 0.01581 µM", "result": 0.259}, {"measurement": "relative viability", "setting": "[11]; first compound 0.1581 µM", "result": 0.201}, {"measurement": "relative viability", "setting": "[11]; first compound 0.5 µM", "result": 0.194}, {"measurement": "relative viability", "setting": "[12]; first compound 0.005 µM", "result": 0.537}, {"measurement": "relative viability", "setting": "[12]; first compound 0.01581 µM", "result": 0.471}, {"measurement": "relative viability", "setting": "[12]; first compound 0.05 µM", "result": 0.558}, {"measurement": "relative viability", "setting": "[12]; first compound 0.1581 µM", "result": 0.543}, {"measurement": "relative viability", "setting": "[12]; first compound 0.5 µM", "result": 0.548}, {"measurement": "relative viability", "setting": "[13]; first compound 0.005 µM", "result": 0.384}, {"measurement": "relative viability", "setting": "[13]; first compound 0.01581 µM", "result": 0.32}, {"measurement": "relative viability", "setting": "[13]; first compound 0.05 µM", "result": 0.357}, {"measurement": "relative viability", "setting": "[13]; first compound 0.1581 µM", "result": 0.36}, {"measurement": "relative viability", "setting": "[13]; first compound 0.5 µM", "result": 0.244}, {"measurement": "relative viability", "setting": "[14]; first compound 0.005 µM", "result": 0.703}, {"measurement": "relative viability", "setting": "[14]; first compound 0.01581 µM", "result": 0.738}, {"measurement": "relative viability", "setting": "[14]; first compound 0.05 µM", "result": 0.757}, {"measurement": "relative viability", "setting": "[14]; first compound 0.1581 µM", "result": 0.787}, {"measurement": "relative viability", "setting": "[14]; first compound 0.5 µM", "result": 0.81}, {"measurement": "relative viability", "setting": "[15]; first compound 0.05 µM", "result": 1.1}, {"measurement": "relative viability", "setting": "[15]; first compound 0.5 µM", "result": 0.613}, {"measurement": "relative viability", "setting": "[16]; first compound 0.005 µM", "result": 0.648}, {"measurement": "relative viability", "setting": "[16]; first compound 0.01581 µM", "result": 0.846}, {"measurement": "relative viability", "setting": "[16]; first compound 0.05 µM", "result": 0.719}, {"measurement": "relative viability", "setting": "[16]; first compound 0.1581 µM", "result": 0.524}, {"measurement": "relative viability", "setting": "[16]; first compound 0.5 µM", "result": 0.676}, {"measurement": "relative viability", "setting": "[17]; first compound 0.005 µM", "result": 0.411}, {"measurement": "relative viability", "setting": "[17]; first compound 0.01581 µM", "result": 0.388}, {"measurement": "relative viability", "setting": "[17]; first compound 0.05 µM", "result": 0.323}, {"measurement": "relative viability", "setting": "[17]; first compound 0.1581 µM", "result": 0.44}, {"measurement": "relative viability", "setting": "[17]; first compound 0.5 µM", "result": 0.294}, {"measurement": "relative viability", "setting": "[18]; first compound 0.005 µM", "result": 0.549}, {"measurement": "relative viability", "setting": "[18]; first compound 0.01581 µM", "result": 0.589}, {"measurement": "relative viability", "setting": "[18]; first compound 0.05 µM", "result": 0.456}, {"measurement": "relative viability", "setting": "[18]; first compound 0.1581 µM", "result": 0.585}, {"measurement": "relative viability", "setting": "[18]; first compound 0.5 µM", "result": 0.518}, {"measurement": "relative viability", "setting": "[19]; first compound 0.005 µM", "result": 0.264}, {"measurement": "relative viability", "setting": "[19]; first compound 0.01581 µM", "result": 0.355}, {"measurement": "relative viability", "setting": "[19]; first compound 0.05 µM", "result": 0.244}, {"measurement": "relative viability", "setting": "[19]; first compound 0.1581 µM", "result": 0.337}, {"measurement": "relative viability", "setting": "[19]; first compound 0.5 µM", "result": 0.37}, {"measurement": "relative viability", "setting": "[20]; first compound 0.005 µM", "result": 0.804}, {"measurement": "relative viability", "setting": "[20]; first compound 0.01581 µM", "result": 0.734}, {"measurement": "relative viability", "setting": "[20]; first compound 0.05 µM", "result": 0.811}, {"measurement": "relative viability", "setting": "[20]; first compound 0.1581 µM", "result": 0.772}, {"measurement": "relative viability", "setting": "[20]; first compound 0.5 µM", "result": 0.752}, {"measurement": "relative viability", "setting": "[21]; first compound 0.005 µM", "result": 0.295}, {"measurement": "relative viability", "setting": "[21]; first compound 0.01581 µM", "result": 0.328}, {"measurement": "relative viability", "setting": "[21]; first compound 0.05 µM", "result": 0.266}, {"measurement": "relative viability", "setting": "[21]; first compound 0.1581 µM", "result": 0.266}, {"measurement": "relative viability", "setting": "[21]; first compound 0.5 µM", "result": 0.292}, {"measurement": "relative viability", "setting": "[22]; first compound 0.005 µM", "result": 0.1}, {"measurement": "relative viability", "setting": "[22]; first compound 0.01581 µM", "result": 0.0998}, {"measurement": "relative viability", "setting": "[22]; first compound 0.05 µM", "result": 0.105}, {"measurement": "relative viability", "setting": "[22]; first compound 0.1581 µM", "result": 0.122}, {"measurement": "relative viability", "setting": "[22]; first compound 0.5 µM", "result": 0.109}]}
